{
  "source": "patent US20140066362A1",
  "about": "“METHOD FOR TREATING INFECTIONS BY TARGETING MICROBIAL H2S-PRODUCING ENZYMES” (NEW YORK UNIVERSITY, priority 2011, published 2014)",
  "data": [
    {"test_system": "E. coli ΔsseA (3MST-deficient) strain", "assay_type": "cell-based", "conditions": "not given", "values": [
      {"smiles": "O=P(O)(O)O", "note": "[200 mM Sodium Phosphate pH 7, Sodium Phosphate]", "ΔsseA inhibition of growth": "−497"},
      {"smiles": "N#CC(C#N)=NNc1ccc(OC(F)(F)F)cc1", "note": "[FCCP]", "ΔsseA inhibition of growth": "−460"}
    ]},
    {"test_system": "E. coli ΔsseA (3MST-deficient) strain", "assay_type": "cell-based", "conditions": "Table 1; relative values of growth inhibition (negative numbers), ΔsseA vs wt E. coli", "values": [
      {"smiles": "O=[N+]([O-])c1ccc(Cl)c([N+](=O)[O-])c1", "note": "[1-Chloro-2,4-dinitrobenzene]", "ΔsseA inhibition of growth": "−221"},
      {"smiles": "CC(C)c1nc2nc(N)nc(N)c2nc1C(C)C", "note": "[2,4-Diamino-6,7-diisopropylpteridine]", "ΔsseA inhibition of growth": "−429"},
      {"smiles": "O=[N+]([O-])c1ccc(O)c([N+](=O)[O-])c1", "note": "[2,4-Dinitrophenol]", "ΔsseA inhibition of growth": "−296"},
      {"smiles": "Nc1c2ccccc2nc2ccccc12", "note": "[9-Aminoacridine]", "ΔsseA inhibition of growth": "−142"},
      {"smiles": "CCCCC(CC)CNC(=N)NC(=N)NCCCCCCNC(=N)NC(=N)NCC(CC)CCCC", "note": "(centres unmarked) [Alexidine]", "ΔsseA inhibition of growth": "−216"},
      {"smiles": "CN(C)CCC=C1c2ccccc2CCc2ccccc21", "note": "[Amitriptyline]", "ΔsseA inhibition of growth": "−422"},
      {"smiles": "CN[C@@H]1[C@@H](O[C@H]2O[C@H](CO)[C@@H](N)[C@H](O)[C@H]2O)OC2C[C@@H](N)[C@@H](O[C@H]3[C@H](O)[C@@H](O)[C@H](N)C[C@@H]3N)OC2[C@@H]1O", "note": "(some centres unmarked) [Apramycin]", "ΔsseA inhibition of growth": "−179"},
      {"smiles": "Cn1cnc([N+](=O)[O-])c1Sc1ncnc2nc[nH]c12", "note": "[Azathioprine]", "ΔsseA inhibition of growth": "−341"},
      {"smiles": "NC(CO)C(=O)NNCc1ccc(O)c(O)c1O", "note": "(centres unmarked) [Benserazide]", "ΔsseA inhibition of growth": "−336"},
      {"smiles": "CN(CC[C@H](N)CC(=O)N[C@H]1C=C[C@H](n2ccc(N)nc2=O)O[C@@H]1C(=O)O)C(=N)N", "note": "[Blasticidin S]", "ΔsseA inhibition of growth": "−185"},
      {"smiles": "N#CC(C#N)=NNc1cccc(Cl)c1", "note": "[CCCP]", "ΔsseA inhibition of growth": "−422"},
      {"smiles": "Cn1c(=O)c2c(ncn2C)n(C)c1=O", "note": "[Caffeine]", "ΔsseA inhibition of growth": "−173"},
      {"smiles": "O=C1C2CC=CCC2C(=O)N1SC(Cl)(Cl)Cl", "note": "(centres unmarked) [Captan]", "ΔsseA inhibition of growth": "−357"},
      {"smiles": "CC1(C)S[C@@H]2[C@H](NC(=O)C(C(=O)O)c3ccccc3)C(=O)N2[C@H]1C(=O)O", "note": "(some centres unmarked) [Carbenicillin]", "ΔsseA inhibition of growth": "−164"},
      {"smiles": "CCN1CCN(C(=O)N[C@@H](C(=O)N[C@@H]2C(=O)N3C(C(=O)O)=C(CSc4nnnn4C)CS[C@H]23)c2ccc(O)cc2)C(=O)C1=O", "note": "[Cefoperazone]", "ΔsseA inhibition of growth": "−159"},
      {"smiles": "NC(=O)c1cc[n+](CC2=C(C(=O)O)N3C(=O)[C@@H](NC(=O)[C@@H](c4ccccc4)S(=O)(=O)[O-])[C@H]3SC2)cc1", "note": "[Cefsulodin]", "ΔsseA inhibition of growth": "−201"},
      {"smiles": "CC(=O)OCC1=C(C(=O)O)N2C(=O)[C@@H](NC(=O)Cc3cccs3)[C@H]2SC1", "note": "[Cephalothin]", "ΔsseA inhibition of growth": "−160"},
      {"smiles": "O=C(O)CCCc1ccc(N(CCCl)CCCl)cc1", "note": "[Chlorambucil]", "ΔsseA inhibition of growth": "−177"},
      {"smiles": "CN(C)CCCN1c2ccccc2Sc2ccc(Cl)cc21", "note": "[Chlorpromazine]", "ΔsseA inhibition of growth": "−251"},
      {"smiles": "O=C(O)C=Cc1ccccc1", "note": "[Cinnamic acid]", "ΔsseA inhibition of growth": "−204"},
      {"smiles": "Cc1onc(-c2ccccc2Cl)c1C(=O)N[C@@H]1C(=O)N2[C@@H]1SC(C)(C)[C@@H]2C(=O)O", "note": "[Cloxacillin]", "ΔsseA inhibition of growth": "−182"},
      {"smiles": "O=c1ccc2ccccc2o1", "note": "[Coumarin]", "ΔsseA inhibition of growth": "−243"},
      {"smiles": "CN(C)c1ccc(C(=C2C=CC(=[N+](C)C)C=C2)c2ccc(N(C)C)cc2)cc1", "note": "[Crystal Violet]", "ΔsseA inhibition of growth": "−576"},
      {"smiles": "Nc1ccn([C@@H]2O[C@H](CO)[C@@H](O)[C@@H]2O)c(=O)n1", "note": "[Cytosine arabinoside]", "ΔsseA inhibition of growth": "−281"},
      {"smiles": "N[C@H](CO)C(=O)O", "note": "[D-Serine]", "ΔsseA inhibition of growth": "−398"},
      {"smiles": "CCN(CC)C(=S)SSC(=S)N(CC)CC", "note": "[Disulfiram]", "ΔsseA inhibition of growth": "−246"},
      {"smiles": "CCCCCCCCCCCC[N+](C)(C)C.[Br-]", "note": "[Dodecyltrimethyl ammonium bromide]", "ΔsseA inhibition of growth": "−225"},
      {"smiles": "CCCCCCCCCCCC[N+](C)(C)CCOc1ccccc1", "note": "[Domiphen bromide]", "ΔsseA inhibition of growth": "−250"},
      {"smiles": "CC[C@H]1OC(=O)[C@H](C)[C@@H](O[C@H]2C[C@@](C)(OC)[C@@H](O)[C@H](C)O2)[C@H](C)[C@@H](O[C@@H]2O[C@H](C)C[C@H](N(C)C)[C@H]2O)[C@](C)(O)C[C@@H](C)C(=O)[C@H](C)[C@@H](O)[C@]1(C)O", "note": "[Erythromycin]", "ΔsseA inhibition of growth": "−468"},
      {"smiles": "O=C1OC(CN2CCOCC2)CN1/N=C/c1ccc([N+](=O)[O-])o1", "note": "(centres unmarked) [Furaltadone]", "ΔsseA inhibition of growth": "−162"},
      {"smiles": "CC(=O)O[C@H]1C[C@@]2(C)[C@@H](C[C@@H](O)[C@H]3[C@@]4(C)CC[C@@H](O)[C@@H](C)[C@@H]4CC[C@@]32C)/C1=C(\\CCC=C(C)C)C(=O)O", "note": "[Fusidic acid]", "ΔsseA inhibition of growth": "−271"},
      {"smiles": "NO", "note": "[Hydroxylamine]", "ΔsseA inhibition of growth": "−150"},
      {"smiles": "O=[N+]([O-])c1ccc(-n2nc(-c3ccccc3)n[n+]2-c2ccc(I)cc2)cc1.[Cl-]", "note": "[Iodonitro tetrazolium violet]", "ΔsseA inhibition of growth": "−215"},
      {"smiles": "CO[C@@H]1[C@@H](O[C@@H]2O[C@H](C)[C@@H](O[C@H]3C[C@@](C)(O)[C@@H](OC(=O)CC(C)C)[C@H](C)O3)[C@H](N(C)C)[C@H]2O)[C@@H](CC=O)C[C@@H](C)[C@@H](O)/C=C/C=C/C[C@@H](C)OC(=O)C[C@H]1OC(C)=O", "note": "[Josamycin]", "ΔsseA inhibition of growth": "−294"},
      {"smiles": "CC(C(=O)O)c1cccc(C(=O)c2ccccc2)c1", "note": "(centres unmarked) [Ketoprofen]", "ΔsseA inhibition of growth": "−468"},
      {"smiles": "O=C1C=C(O)C(=O)c2ccccc21", "note": "[Lawsone]", "ΔsseA inhibition of growth": "−330"},
      {"smiles": "CCN(CC)CC(=O)Nc1c(C)cccc1C", "note": "[Lidocaine]", "ΔsseA inhibition of growth": "−269"},
      {"smiles": "CCCCCCCC[N+](C)(CCCCCCCC)CCCCCCCC.[Cl-]", "note": "[Methyltrioctylammonium chloride]", "ΔsseA inhibition of growth": "−326"},
      {"smiles": "CO[C@@]1(NC(=O)C(C(=O)O)c2ccc(O)cc2)C(=O)N2C(C(=O)O)=C(CSc3nnnn3C)CO[C@@H]21", "note": "(some centres unmarked) [Moxalactam]", "ΔsseA inhibition of growth": "−171"},
      {"smiles": "CCOc1ccc2ccccc2c1C(=O)N[C@@H]1C(=O)N2[C@@H]1SC(C)(C)[C@@H]2C(=O)O", "note": "[Nafcillin]", "ΔsseA inhibition of growth": "−227"},
      {"smiles": "CCn1cc(C(=O)O)c(=O)c2ccc(C)nc21", "note": "[Nalidixic acid]", "ΔsseA inhibition of growth": "−183"},
      {"smiles": "CCn1cc(C(=O)O)c(=O)c2cc(F)c(N3CCNCC3)cc21", "note": "[Norfloxacin]", "ΔsseA inhibition of growth": "−212"},
      {"smiles": "CO[C@@H]1[C@@H](OC(N)=O)[C@@H](O)[C@H](Oc2ccc3c(O)c(NC(=O)c4ccc(O)c(CC=C(C)C)c4)c(=O)oc3c2C)OC1(C)C", "note": "[Novobiocin]", "ΔsseA inhibition of growth": "−265"},
      {"smiles": "CO[C@H]1C[C@H](O[C@H]2[C@H](C)[C@@H](O[C@@H]3O[C@H](C)C[C@H](N(C)C)[C@H]3O)[C@@H](C)C[C@@]3(CO3)C(=O)[C@H](C)[C@@H](O)[C@@H](C)[C@@H](C)OC(=O)[C@@H]2C)O[C@@H](C)[C@@H]1O", "note": "[Oleandomycin]", "ΔsseA inhibition of growth": "−498"},
      {"smiles": "Cc1ncc([N+](=O)[O-])n1CC(O)CCl", "note": "(centres unmarked) [Ornidazole]", "ΔsseA inhibition of growth": "−203"}
    ]}
  ]
}
